From US20250346629A1, “USE OF D-ENANTIOMERIC PEPTIDE LIGANDS OF MONOMERIC ALPHA-SYNUCLEIN FOR THE THERAPY OF VARIOUS SYNUCLEINOPATHIES” (PRIAVOID GMBH, priority 2021, published 2025) come the findings set out here.

Each structure is given as a SMILES string. Square brackets hold non-standard residues; d marks the D form. Peptide text beside a SMILES is read from it.

Experiment [1] has as its target WT α-syn (Homo sapiens, UniProt P37840). The experiment can be described thus: Single cycle SPR experiment of WT α-syn on CM5-immobilized peptides (FIG. 8). The conditions noted are these: 1:1 binding model fit, CM5 chip, PBS pH 7.4, 0.005% Tween-20. The procedure: Each peptide was immobilized on a CM5 sensor chip surface. WT α-syn was injected in a concentration range of 30-500 nM in PBS, PH 7.4, 0.005% (v/v) Tween-20. Regeneration was carried out after every cycle with 2 M Gua-HCl for 2×30 sec. The KDs were determined with a 1:1 binding model fit, as follows: SVD-1a: 15.7 nM; SVD-6a: 14.0 nM; SVD-10a: 12.3 nM.

The target in experiment [2] is α-syn PFF oligomers (Homo sapiens, UniProt P37840). The experiment is described as follows: Decomposition of PFF oligomers (HPLC-SEC, DLS, AFM; FIG. 17). The class given is biochemical. The conditions noted are these: 100 nM monomer-equivalent PFF oligomers, 400 and 1600 nM SVD-1a, 3 days, 37° C., PBS pH 7.4. As for the experimental part:
PFF oligomers were produced as follows. Firstly, insoluble PFF was produced by incubating 300 μM of recombinant α-syn in a LoBind reaction tube (Eppendorf GmbH, GE) with a borosilicate glass bead (d=3.0 mm; Hilgenberg, DE) in 20 mM NaPi, pH 7.0, 150 […] for one week at 37° C. The insoluble PFF was harvested by ultracentrifugation at 100 000×g for 30 min at 4° C., and the pellet was washed several times with 20 mM NaPi, PH 7.0, 150 mM NaCl. The monomer equivalent concentration was determined by measuring the α-syn concentration in the supernatant after the first centrifugation and subtracting this from the start concentration for the fibrillation. The insoluble PFF was resuspended in buffer and frozen at −80° C. with liquid N2. […]
The elimination of PFF oligomers was assessed by SEC and the subsequent detection of the PFF oligomer and monomer peaks. […] The proteins were detected at A214.
The measurements were carried out using a SpectroSize 300 131 (XtalConcepts, GE) device and a sample volume of 1 ml in a sealed quartz cuvette (Hellma Group, GE). […] Data points were recorded every 30 seconds for time-dependent DLS measurements. […]
(A) HPLC-SEC measurement samples were injected onto a Bio SEC-3 column (300 Å, Agilent, USA). The PFF oligomers eluted after approximately 5 min, while the α-syn monomer was detected after approximately 8.6 min. […]

In experiment [1], `CC[C@@H](C)[C@@H](NC(=O)[C@@H](Cc1c[nH]cn1)NC(=O)[C@@H](CCC(=O)O)NC(=O)[C@@H](CCC(N)=O)NC(=O)[C@@H](Cc1c[nH]c2ccccc12)NC(=O)[C@@H](Cc1ccc(O)cc1)NC(=O)[C@H](NC(=O)[C@@H](CCC(=O)O)NC(=O)[C@@H](Cc1c[nH]cn1)NC(=O)[C@H](NC(=O)[C@H]1CCCN1C(=O)[C@@H](CC(C)C)NC(=O)[C@H](N)CCCNC(=N)N)[C@H](C)O)[C@H](C)O)C(=O)N[C@H](Cc1c[nH]c2ccccc12)C(=O)N[C@H](Cc1c[nH]cn1)C(=O)N[C@H](C)C(=O)N[C@H](CCCNC(=N)N)C(=O)N[C@H](CCCNC(=N)N)C(=O)N[C@H](CCCNC(=N)N)C(=O)N[C@H](CCCNC(=N)N)C(=O)N[C@H](CCCNC(=N)N)C(N)=O` [SVD-1a, rlpthetywqehiwharrrrr] (H-[dR][dL][dP][dT][dH][dE][dT][dY][dW][dQ][dE][dH][dI][dW][dH][dA][dR][dR][dR][dR][dR]-NH2) yielded a Kd of 15.7 nM. In addition, in experiment [2], the “effect on PFF oligomers” value was “decomposes the PFF oligomers into α-syn monomers”.
